Several values for one entry are separate records, joined by “and”; a condition that tells them apart may be missing. Equal entries are not always repeated.
Tests used:
[1] = target: T1, human glutathione S-transferase P1-1 (GSTP1-1) (Homo sapiens, UniProt P09211); assay: CDNB assay of GST activity and inhibition, GST P1-1; type: biochemical; details: for IC50: first value of the cell GSTP1-1/GSTA1-1, CDNB assay, 20 nM GST; for fold greater affinity for GSTP1-1 (lower IC50) than the ligand domain alone: versus corresponding ligand domain (GS-NB/IId, IIg, IIId, IVk)
T1 construct: made in house; host or cells: E. coli
T1 sequence (P09211 2-210 limits assumed): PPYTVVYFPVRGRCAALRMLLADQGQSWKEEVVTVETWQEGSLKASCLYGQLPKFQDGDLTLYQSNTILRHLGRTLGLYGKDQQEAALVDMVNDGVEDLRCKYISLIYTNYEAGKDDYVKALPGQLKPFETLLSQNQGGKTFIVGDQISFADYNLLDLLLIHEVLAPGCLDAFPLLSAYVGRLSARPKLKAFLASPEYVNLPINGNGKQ
Description: (§1) GST isozymes. […] The enzyme was incubated with 10 mM dithiothreitol to ensure complete reduction of cysteine residues, followed by extensive dialysis to remove the reducing agent. […] Plasmodium GST (pGST) was a gift from Dr. Katja Becker (Justus Liebig University of Giessen), and murine GSTP and GSTA were gifts from Dr. Dave Eaton (University of Washington). Except where otherwise stated (i.e. testing of pGST in Example 6.4.5 and testing of murine GSTs in Example 6.4.7), GST isozymes tested were from human.
(§2) GST assays. Assays of GST activity and inhibition were performed with chloro-2,4-dinitrobenzene (CDNB) as the electrophilic substrate. Except where otherwise stated, GST concentration was 20 nM. […] Rates were determined by measuring absorption at 340 nm (λmax of glutathione-dinitrobenzene) for 1 minute on a Beckman DU 7400 spectrophotometer. For IC50 determinations, assays were performed at inhibitor concentrations ranging over at least […] (from 100-fold above the IC50 to 100-fold below). Data were fit to a sigmoidal dose-response function using GraphPad Prism to determine the 50% inhibitory concentration.

[2] = target: T2, human glutathione S-transferase A1-1 (GSTA1-1) (Homo sapiens, UniProt P08263); assay: CDNB assay of GST activity and inhibition, GST A1-1; type: biochemical; details: second value of the cell GSTP1-1/GSTA1-1, 20 nM GST
T2 construct: made in house; host or cells: E. coli
T2 sequence (P08263 1-222): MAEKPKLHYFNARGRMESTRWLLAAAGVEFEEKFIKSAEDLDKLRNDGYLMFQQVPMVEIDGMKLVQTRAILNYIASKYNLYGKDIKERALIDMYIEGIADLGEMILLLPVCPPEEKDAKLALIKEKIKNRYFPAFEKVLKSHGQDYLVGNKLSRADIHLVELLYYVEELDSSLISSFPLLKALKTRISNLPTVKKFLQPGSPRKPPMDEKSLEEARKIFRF
Description: as §1, §2

| SMILES | IC50 [1] | IC50 [2] | fold greater affinity for GSTP1-1 (lower IC50) than the ligand domain alone [1] | fold lower IC50 for GSTP1-1 than the monovalent inhibitor ([1]; versus IVj) [fold] | isozyme specificity GSTP1-1 versus GSTA1-1 ([1]; in words) |
| --- | --- | --- | --- | --- | --- |
| Nc1c(S(=O)(=O)O)cc(Nc2cccc(S(=O)(=O)CCNCCOCCOCCOCCNCCS(=O)(=O)c3cccc(Nc4cc(S(=O)(=O)O)c(N)c5c4C(=O)c4ccccc4C5=O)c3)c2)c2c1C(=O)c1ccccc1C2=O [IIIb] | 72 nM | > 100000 nM | – | – | – |
| CCNCCS(=O)(=O)c1cccc(Nc2cc(S(=O)(=O)O)c(N)c3c2C(=O)c2ccccc2C3=O)c1 [IIId*, reference compound] | 5000 nM | > 100000 nM | – | – | – |
| NC(=O)c1cc(CNC(=O)CNCCS(=O)(=O)c2cccc(Nc3cc(S(=O)(=O)O)c(N)c4c3C(=O)c3ccccc3C4=O)c2)cc(CNC(=O)CNCCS(=O)(=O)c2cccc(Nc3cc(S(=O)(=O)O)c(N)c4c3C(=O)c3ccccc3C4=O)c2)c1 [IIIf] | 437 nM | > 1000 nM | – | – | – |
| NC(=O)c1cc(CNC(=O)CCNCCS(=O)(=O)c2cccc(Nc3cc(S(=O)(=O)O)c(N)c4c3C(=O)c3ccccc3C4=O)c2)cc(CNC(=O)CCNCCS(=O)(=O)c2cccc(Nc3cc(S(=O)(=O)O)c(N)c4c3C(=O)c3ccccc3C4=O)c2)c1 [IIIg] | 162 nM | 2500 nM | – | – | – |
| NC(=O)c1cc(CNC(=O)CCCCCNCCS(=O)(=O)c2cccc(Nc3cc(S(=O)(=O)O)c(N)c4c3C(=O)c3ccccc3C4=O)c2)cc(CNC(=O)CCCCCNCCS(=O)(=O)c2cccc(Nc3cc(S(=O)(=O)O)c(N)c4c3C(=O)c3ccccc3C4=O)c2)c1 [IIIi] | 203 nM | > 1000 nM | – | – | – |
| NC(=O)c1cc(CNC(=O)CCCCCCCNCCS(=O)(=O)c2cccc(Nc3cc(S(=O)(=O)O)c(N)c4c3C(=O)c3ccccc3C4=O)c2)cc(CNC(=O)CCCCCCCNCCS(=O)(=O)c2cccc(Nc3cc(S(=O)(=O)O)c(N)c4c3C(=O)c3ccccc3C4=O)c2)c1 [IIIj] | 267 nM | > 220 nM | – | – | – |
| NC(CCC(=O)NC(CSc1ccc(C(=O)OCCOCCOCCOCCOC(=O)c2ccc(SCC(NC(=O)CCC(N)C(=O)O)C(=O)NCC(=O)O)c([N+](=O)[O-])c2)cc1[N+](=O)[O-])C(=O)NCC(=O)O)C(=O)O (stereo not shown) [IIa] | 4500 nM | 29000 nM | – | – | – |
| NC(CCC(=O)NC(CSc1ccc(C(=O)OCCOC(=O)c2cccc(C(=O)OCCOC(=O)c3ccc(SCC(NC(=O)CCC(N)C(=O)O)C(=O)NCC(=O)O)c([N+](=O)[O-])c3)c2)cc1[N+](=O)[O-])C(=O)NCC(=O)O)C(=O)O (stereo not shown) [IIb] | 2900 nM | 1600 nM | – | – | – |
| NC(CCC(=O)NC(CSc1ccc(C(=O)OCCCOC(=O)c2cccc(C(=O)OCCCOC(=O)c3ccc(SCC(NC(=O)CCC(N)C(=O)O)C(=O)NCC(=O)O)c([N+](=O)[O-])c3)c2)cc1[N+](=O)[O-])C(=O)NCC(=O)O)C(=O)O (stereo not shown) [IIc] | 280 nM | 3300 nM | – | – | – |
| CCOC(=O)c1ccc(SCC(NC(=O)CCC(N)C(=O)O)C(=O)NCC(=O)O)c([N+](=O)[O-])c1 (stereo not shown) [IId*, reference compound] | 21000 nM | 30000 nM | – | – | no substantial isozyme specificity |
| CCC(CSCC(NC(=O)CCC(N)C(=O)O)C(=O)NCC(=O)O)C(=O)c1ccc(OCC(=O)NCCCC(=O)NCc2cc(CNC(=O)CCCNC(=O)COc3ccc(C(=O)C(CC)CSCC(NC(=O)CCC(N)C(=O)O)C(=O)NCC(=O)O)c(Cl)c3Cl)cc(C(N)=O)c2)c(Cl)c1Cl (stereo not shown) [IIe] | 353 nM | 3.8 nM | 30 fold | – | – |
| NC(CCC(=O)NC(CSCCCCCCCCOC(=O)CCCCCCCSCC(NC(=O)CCC(N)C(=O)O)C(=O)NCC(=O)O)C(=O)NCC(=O)O)C(=O)O (stereo not shown) [Ia] | 360 nM | 200 nM | – | – | – |
| NC(CCC(=O)NC(CSCCCCCCCCCOC(=O)CCCCCCCSCC(NC(=O)CCC(N)C(=O)O)C(=O)NCC(=O)O)C(=O)NCC(=O)O)C(=O)O (stereo not shown) [Ib] | 300 nM | 340 nM | – | – | – |
| NC(CCC(=O)NC(CSCCCCCCCCCCOC(=O)CCCCCCCSCC(NC(=O)CCC(N)C(=O)O)C(=O)NCC(=O)O)C(=O)NCC(=O)O)C(=O)O (stereo not shown) [Ic] | 80 nM | 160 nM | – | – | – |
| NC(CCC(=O)NC(CSCCCCCCCCCCCOC(=O)CCCCCCCSCC(NC(=O)CCC(N)C(=O)O)C(=O)NCC(=O)O)C(=O)NCC(=O)O)C(=O)O (stereo not shown) [Id] | 200 nM | 110 nM | – | – | – |

Continued, in another order:

| IC50 [1] | IC50 [2] | fold greater affinity for GSTP1-1 (lower IC50) than the ligand domain alone [1] | fold lower IC50 for GSTP1-1 than the monovalent inhibitor ([1]; versus IVj) [fold] | SMILES | isozyme specificity GSTP1-1 versus GSTA1-1 ([1]; in words) |
| --- | --- | --- | --- | --- | --- |
| 44 nM | > 100000 nM | – | – | Nc1c(S(=O)(=O)O)cc(Nc2cccc(S(=O)(=O)CCNCCOCCOCCNCCS(=O)(=O)c3cccc(Nc4cc(S(=O)(=O)O)c(N)c5c4C(=O)c4ccccc4C5=O)c3)c2)c2c1C(=O)c1ccccc1C2=O [IIIa] | – |
| 440 nM | > 100000 nM | – | – | Nc1c(S(=O)(=O)O)cc(Nc2cccc(S(=O)(=O)CCNCCCNC(=O)c3cccc(C(=O)NCCCNCCS(=O)(=O)c4cccc(Nc5cc(S(=O)(=O)O)c(N)c6c5C(=O)c5ccccc5C6=O)c4)c3)c2)c2c1C(=O)c1ccccc1C2=O [IIIc] | – |
| 557 nM | > 10000 nM | – | – | NC(=O)c1cc(CNCCS(=O)(=O)c2cccc(Nc3cc(S(=O)(=O)O)c(N)c4c3C(=O)c3ccccc3C4=O)c2)cc(CNCCS(=O)(=O)c2cccc(Nc3cc(S(=O)(=O)O)c(N)c4c3C(=O)c3ccccc3C4=O)c2)c1 [IIIe] | – |
| ~22 nM and 22 nM | > 1000 nM | approximately 220 fold | – | NC(=O)c1cc(CNC(=O)CCCNCCS(=O)(=O)c2cccc(Nc3cc(S(=O)(=O)O)c(N)c4c3C(=O)c3ccccc3C4=O)c2)cc(CNC(=O)CCCNCCS(=O)(=O)c2cccc(Nc3cc(S(=O)(=O)O)c(N)c4c3C(=O)c3ccccc3C4=O)c2)c1 [IIIh] | – |
| 854 nM | > 20000 nM | approximately 6 fold | – | NC(=O)c1cccc(CNC(=O)CCCNCCS(=O)(=O)c2cccc(Nc3cc(S(=O)(=O)O)c(N)c4c3C(=O)c3ccccc3C4=O)c2)c1 [IIIl*, reference compound] | – |
| 1500 nM | 5830 nM | – | – | CCC(CSCC(NC(=O)CCC(N)C(=O)O)C(=O)NCC(=O)O)C(=O)c1ccc(OCC(=O)NCCCC(=O)NCc2cccc(C(N)=O)c2)c(Cl)c1Cl (stereo not shown) [IIf*, reference compound] | – |
| > 10000 nM | 741 nM | – | – | C=C(CC)C(=O)c1ccc(OCC(=O)Nc2cccc(NC(=O)COc3ccc(C(=O)C(=C)CC)c(Cl)c3Cl)c2)c(Cl)c1Cl [IVa, Bis-1,3-ethacrynyl-phenylenediamine] | – |
| > 10000 nM | 1310 nM | – | – | C=C(CC)C(=O)c1ccc(OCC(=O)Nc2ccc(NC(=O)COc3ccc(C(=O)C(=C)CC)c(Cl)c3Cl)cc2)c(Cl)c1Cl [IVb, Bis-1,4-ethacrynyl-phenylenediamine] | – |
| 992 nM | 29.7 nM | – | – | C=C(CC)C(=O)c1ccc(OCC(=O)NCc2cc(CNC(=O)COc3ccc(C(=O)C(=C)CC)c(Cl)c3Cl)cc(C(N)=O)c2)c(Cl)c1Cl [IVc] | – |
| 634 nM | 23 nM | – | – | C=C(CC)C(=O)c1ccc(OCC(=O)NCC(=O)NCc2cc(CNC(=O)CNC(=O)COc3ccc(C(=O)C(=C)CC)c(Cl)c3Cl)cc(C(N)=O)c2)c(Cl)c1Cl [IVd] | – |
| 1200 nM | 12 nM and 12.3 nM | – | – | C=C(CC)C(=O)c1ccc(OCC(=O)NCCC(=O)NCc2cc(CNC(=O)CCNC(=O)COc3ccc(C(=O)C(=C)CC)c(Cl)c3Cl)cc(C(N)=O)c2)c(Cl)c1Cl [IVe] | – |
| 589 nM | 14 nM | – | – | C=C(CC)C(=O)c1ccc(OCC(=O)NCCCC(=O)NCc2cc(CNC(=O)CCCNC(=O)COc3ccc(C(=O)C(=C)CC)c(Cl)c3Cl)cc(C(N)=O)c2)c(Cl)c1Cl [IVf] | – |
| 31 nM | 54 nM | approximately 129 fold | 403 | C=C(CC)C(=O)c1ccc(OCC(=O)NCCCCCCCC(=O)NCc2cc(CNC(=O)CCCCCCCNC(=O)COc3ccc(C(=O)C(=C)CC)c(Cl)c3Cl)cc(C(N)=O)c2)c(Cl)c1Cl [IVh] | – |
| 190 nM | 140 nM | – | – | NC(CCC(=O)NC(CSCCCCCCCCCCCCOC(=O)CCCCCCCSCC(NC(=O)CCC(N)C(=O)O)C(=O)NCC(=O)O)C(=O)NCC(=O)O)C(=O)O (stereo not shown) [Ie] | – |
| 3800 nM | 3800 nM | – | – | COC(=O)CCCCCCCSCC(NC(=O)CCC(N)C(=O)O)C(=O)NCC(=O)O (stereo not shown) [If*, reference compound] | – |
| 24800 nM | > 10000 nM | – | – | NC(=O)c1cc(CNC(=O)CCCNC(=O)CSCC(NC(=O)CCC(N)C(=O)O)C(=O)NCC(=O)O)cc(CNC(=O)CCCNC(=O)CSCC(NC(=O)CCC(N)C(=O)O)C(=O)NCC(=O)O)c1 (stereo not shown) [Ig] | – |
| 39300 nM | > 10000 nM | – | – | NC(=O)c1cccc(CNC(=O)CCCC(=O)NCSCC(NC(=O)CCC(N)C(=O)O)C(=O)NCC(=O)O)c1 (stereo not shown) [Ih*, reference compound] | – |
